Measured values reported in patent EP0128333B1, “Agent for inactivating the mutagenicity of coffee and method therefor” (SUNTORY LIMITED, priority 1983, dated 1984).

Assays:
[1] = system: Salmonella typhimurium strain TA 100; assay: Mutagenicity / antimutagenic effect, preincubation Salmonella (Ames) test; settings: Salmonella typhimurium strain TA 100 (histidine-requiring), 48 h, pH 7.4
Experimental: • I) Measuring mutagenicity and the antimutagenic effect • (i) Method: • The preincubation method described in Sugimura & Nagao; Chemical Mutagens, Vol. 6, p. 41, 1981 was used. • (ii) Microorganism: • Histidine-requiring Salmonella typhimurium strain TA 100 (hereunder S. TA 100) was used. • (iii) Preparation of samples: • (a) Instant coffee: • Instant coffee powder was dissolved in distilled water. Predetermined amounts of catalase were also dissolved in distilled water, and 50 µl of each solution was mixed with an equal amount of the aqueous coffee solution. • (b) Regular coffee: • Roasted and ground coffee beans (20 g) were extracted with hot distilled water (250 ml), and the extract was filtered through coffee filter paper No. 12 manufactured by Kalita Co., Ltd. The extract was freeze-dried, and after measuring the weight of the dry product, it was dissolved in distilled water. Predetermined amounts of catalase were also dissolved in distilled water, and 50 pl of each solution was mixed with an equal amount of the aqueous solution of coffee concentrate. • (c) Catalase: • A pure isolate from calf liver as manufactured by P-L Biochemicals, Inc. was used. […] After incubation at 37°C for 48 hours, the number of colonies forming on the plate was counted as revertants.

mouse deodenum = settings: 0.1 % of hydrogen peroxide; cited from earlier work
human cells = settings: cited from earlier work
Neurospora crassa = settings: cited from earlier work

Compound: OO [hydrogen peroxide]
- mutagenicity to S. TA 100 [1]: 160 revertants/108 survivors/pmole
- carcinogenicity (mouse deodenum): cause malignant tumors
- clastogenic to human cells (human cells): clastogenic
- mutagenic to Neurospora crassa (Neurospora crassa): mutagenic
